From the NIST ThermoML archive (doi:10.1016/j.jct.2005.11.009)

Conditions: Liquid, Transpiration method

CCCCCc1ccccc1 [pentylbenzene]
Conditions	vapor or sublimation pressure [kPa]
284.5 K	0.0162
287.5 K	0.0218
290.4 K	0.0272
293.3 K	0.0333
293.4 K	0.0328
296.3 K	0.0427
298.3 K	0.0493
303.2 K	0.0706
306.3 K	0.0902
308.2 K	0.0998
311.2 K	0.1227
314.2 K	0.1487
317.3 K	0.1765
320.3 K	0.2193
323.2 K	0.2711

CCCCCCCc1ccccc1 [heptylbenzene]
Conditions	vapor or sublimation pressure [kPa]
292.5 K	0.00286
294.5 K	0.00347
297.5 K	0.00455
300.4 K	0.00585
303.4 K	0.00761
306.4 K	0.00955
309.4 K	0.01227
312.4 K	0.01486
315.4 K	0.01959
318.2 K	0.02441
321.3 K	0.03085
323.4 K	0.03499
326.4 K	0.04342
328.4 K	0.04901
331.3 K	0.06114
333.5 K	0.06975
336.4 K	0.0845
338.5 K	0.09752
341.3 K	0.1139
343.5 K	0.1322
346.3 K	0.1552
348.5 K	0.1818
351.5 K	0.2197
353.5 K	0.2474

CCCCCCCCCCCc1ccccc1 [undecylbenzene]
Conditions	vapor or sublimation pressure [kPa]
313.2 K	0.00027
319.3 K	0.0005
323.3 K	0.00072
327.3 K	0.00104
331.3 K	0.00146
333.4 K	0.00176
338.4 K	0.00262
343.5 K	0.00413
348.7 K	0.00598
353.6 K	0.00906
358.7 K	0.01272
363.8 K	0.01807

CCCCCCCCCCc1ccccc1 [1-phenyldecane]
Conditions	vapor or sublimation pressure [kPa]
318.2 K	0.00122
323.2 K	0.00192
328.3 K	0.00293
333.5 K	0.0045
338.6 K	0.00655
343.7 K	0.00966
348.7 K	0.0144
353.3 K	0.0203
358.4 K	0.0288
363.4 K	0.0406
